# Test results reported in patent US9255295B2, “Method for evaluating the sensitizing potential of a test compound” (IMMUNOSEARCH, priority 2010, dated 2016).
# System: genes specific for sensitization (BRAK, CTSS, DAPK2, FABP4, HSP27, IL18, HSP90, IL1R2, TPSAB1, CXCR1, DEFB1, DHFR, EHF, IVL, KRT4, MELANA, NGAL, PDZK1IP1, PI3 …)
# Assay: Expression of the other (non-ARE) sensitization-specific genes in EPISKIN reconstructed skin (quantitative RT-PCR)
# Assay type: cell-based, human
compound,measurement,setting,value
Oc1ccc(O)cc1 [Hydroquinone],BRAK expression compared to control,0.1%,0.7
same,BRAK grade (NUMBER OF GENES),0.1%,"0 (if this expression is lower, the grade is 0)"
same,CTSS expression compared to control,0.1%,0.7
same,CTSS grade (NUMBER OF GENES),0.1%,"0 (if this expression is lower, the grade is 0)"
same,CXCR1 expression compared to control,0.1%,2.9
same,CXCR1 grade (NUMBER OF GENES),0.1%,"1 (If the expression is greater than 1.3 compared to the control, a grade of 11s given)"
same,DAPK2 expression compared to control,0.1%,1.1
same,DAPK2 grade (NUMBER OF GENES),0.1%,"0 (if this expression is lower, the grade is 0)"
same,DEFB1 expression compared to control,0.1%,1.7
same,DEFB1 grade (NUMBER OF GENES),0.1%,"1 (If the expression is greater than 1.3 compared to the control, a grade of 11s given)"
same,DHFR expression compared to control,0.1%,0.4
same,DHFR grade (NUMBER OF GENES),0.1%,"0 (if this expression is lower, the grade is 0)"
same,EHF expression compared to control,0.1%,1.2
same,EHF grade (NUMBER OF GENES),0.1%,"0 (if this expression is lower, the grade is 0)"
same,FABP4 expression compared to control,0.1%,1.1
same,FABP4 grade (NUMBER OF GENES),0.1%,"0 (if this expression is lower, the grade is 0)"
same,HSP27 expression compared to control,0.1%,0.8
same,HSP27 grade (NUMBER OF GENES),0.1%,"0 (if this expression is lower, the grade is 0)"
same,HSP90 expression compared to control,0.1%,1.3
same,HSP90 grade (NUMBER OF GENES),0.1%,"0 (if this expression is lower, the grade is 0)"
same,IL18 expression compared to control,0.1%,0.8
same,IL18 grade (NUMBER OF GENES),0.1%,"0 (if this expression is lower, the grade is 0)"
same,IVL expression compared to control,0.1%,1.6
same,IVL grade (NUMBER OF GENES),0.1%,"1 (If the expression is greater than 1.3 compared to the control, a grade of 11s given)"
same,KRT4 expression compared to control,0.1%,2.0
same,KRT4 grade (NUMBER OF GENES),0.1%,"1 (If the expression is greater than 1.3 compared to the control, a grade of 11s given)"
same,MELANA expression compared to control,0.1%,0.7
same,MELANA grade (NUMBER OF GENES),0.1%,"0 (if this expression is lower, the grade is 0)"
same,NGAL expression compared to control,0.1%,1.5
same,NGAL grade (NUMBER OF GENES),0.1%,"1 (If the expression is greater than 1.3 compared to the control, a grade of 11s given)"
same,P13 expression compared to control,0.1%,1.1
same,P13 grade (NUMBER OF GENES),0.1%,"0 (if this expression is lower, the grade is 0)"
same,PDZK1iP1 expression compared to control,0.1%,1.2
same,PDZK1iP1 grade (NUMBER OF GENES),0.1%,"0 (if this expression is lower, the grade is 0)"
same,SENS >1.3 (NUMBER OF GENES),0.1%,2
same,SERPINB3 expression compared to control,0.1%,1.1
same,SERPINB3 grade (NUMBER OF GENES),0.1%,"0 (if this expression is lower, the grade is 0)"
same,TOTAL SENS (NUMBER OF GENES),0.1%,5
same,BRAK expression compared to control,1%,0.8
same,BRAK grade (NUMBER OF GENES),1%,"0 (if this expression is lower, the grade is 0)"
same,CTSS expression compared to control,1%,1.2
same,CTSS grade (NUMBER OF GENES),1%,"0 (if this expression is lower, the grade is 0)"
same,CXCR1 expression compared to control,1%,2.8
same,CXCR1 grade (NUMBER OF GENES),1%,"1 (If the expression is greater than 1.3 compared to the control, a grade of 11s given)"
same,DAPK2 expression compared to control,1%,1.2
same,DAPK2 grade (NUMBER OF GENES),1%,"0 (if this expression is lower, the grade is 0)"
same,DEFB1 expression compared to control,1%,1.1
same,DEFB1 grade (NUMBER OF GENES),1%,"0 (if this expression is lower, the grade is 0)"
same,DHFR expression compared to control,1%,0.8
same,DHFR grade (NUMBER OF GENES),1%,"0 (if this expression is lower, the grade is 0)"
same,EHF expression compared to control,1%,1.1
same,EHF grade (NUMBER OF GENES),1%,"0 (if this expression is lower, the grade is 0)"
same,FABP4 expression compared to control,1%,1.1
same,FABP4 grade (NUMBER OF GENES),1%,"0 (if this expression is lower, the grade is 0)"
same,HSP27 expression compared to control,1%,0.9
same,HSP27 grade (NUMBER OF GENES),1%,"0 (if this expression is lower, the grade is 0)"
same,HSP90 expression compared to control,1%,1.1
same,HSP90 grade (NUMBER OF GENES),1%,"0 (if this expression is lower, the grade is 0)"
same,IL18 expression compared to control,1%,0.8
same,IL18 grade (NUMBER OF GENES),1%,"0 (if this expression is lower, the grade is 0)"
same,IVL expression compared to control,1%,1.5
same,IVL grade (NUMBER OF GENES),1%,"1 (If the expression is greater than 1.3 compared to the control, a grade of 11s given)"
same,KRT4 expression compared to control,1%,1.5
same,KRT4 grade (NUMBER OF GENES),1%,"1 (If the expression is greater than 1.3 compared to the control, a grade of 11s given)"
same,MELANA expression compared to control,1%,0.7
same,MELANA grade (NUMBER OF GENES),1%,"0 (if this expression is lower, the grade is 0)"
same,NGAL expression compared to control,1%,1.7
same,NGAL grade (NUMBER OF GENES),1%,"1 (If the expression is greater than 1.3 compared to the control, a grade of 11s given)"
same,P13 expression compared to control,1%,1.2
same,P13 grade (NUMBER OF GENES),1%,"0 (if this expression is lower, the grade is 0)"
same,PDZK1iP1 expression compared to control,1%,1.0
same,PDZK1iP1 grade (NUMBER OF GENES),1%,"0 (if this expression is lower, the grade is 0)"
same,SENS >1.3 (NUMBER OF GENES),1%,5
same,SERPINB3 expression compared to control,1%,1.0
same,SERPINB3 grade (NUMBER OF GENES),1%,"0 (if this expression is lower, the grade is 0)"
same,TOTAL SENS (NUMBER OF GENES),1%,5
